Experiments:
[1] = molecular target: T1, Cdc25B (Homo sapiens, UniProt P30305); experiment: intact protein ESI-Q-TOF MS of covalent adducts; IC50 from OMFP fluorometric assay with recombinant Cdc25B; type: biochemical
T1 construct: Cdc25B catalytic domain (372–551)
T1 sequence (P30305 386-565): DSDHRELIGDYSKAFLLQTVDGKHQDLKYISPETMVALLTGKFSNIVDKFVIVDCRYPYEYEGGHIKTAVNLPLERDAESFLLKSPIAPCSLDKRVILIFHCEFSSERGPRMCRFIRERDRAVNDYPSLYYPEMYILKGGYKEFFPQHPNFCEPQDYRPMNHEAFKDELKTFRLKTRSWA

[2] = molecular target: T2, Cdc25B (Homo sapiens, UniProt P30305); experiment: OMFP fluorometric phosphatase assay (CycLex Cdc25B kit), positive control; type: biochemical
T2 construct: recombinant human Cdc25B
T2 sequence (P30305 1-580): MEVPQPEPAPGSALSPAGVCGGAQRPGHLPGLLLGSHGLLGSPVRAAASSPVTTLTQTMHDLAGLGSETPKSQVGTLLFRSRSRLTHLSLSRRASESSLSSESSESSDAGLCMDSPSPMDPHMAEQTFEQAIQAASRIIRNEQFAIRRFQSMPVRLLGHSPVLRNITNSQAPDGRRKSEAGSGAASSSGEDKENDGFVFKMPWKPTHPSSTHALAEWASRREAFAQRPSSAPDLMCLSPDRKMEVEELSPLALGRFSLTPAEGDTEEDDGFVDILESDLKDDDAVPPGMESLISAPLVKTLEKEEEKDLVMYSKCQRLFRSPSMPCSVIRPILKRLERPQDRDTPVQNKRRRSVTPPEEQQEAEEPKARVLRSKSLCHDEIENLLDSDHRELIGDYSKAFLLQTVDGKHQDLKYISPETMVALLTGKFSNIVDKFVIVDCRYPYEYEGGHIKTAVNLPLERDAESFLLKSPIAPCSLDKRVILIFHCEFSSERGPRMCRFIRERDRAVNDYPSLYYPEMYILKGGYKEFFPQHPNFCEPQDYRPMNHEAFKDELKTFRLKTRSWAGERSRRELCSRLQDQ

Structure (SMILES)	IC50 [1]	IC50 [2]
C=C1C(=O)O[C@@H]2C[C@H](C)C(CCC(C)=O)=C[C@H](O)[C@H]12 [HB-21]	24.8 ± 1.63 µM	
CNC1=CC(=O)c2ccncc2C1=O [Caulibugulone A]		5.37 ± 0.45 µM
